Like-named read-outs stand apart in the source and are kept apart here.
Biological target: T1, MST1 (Homo sapiens, UniProt Q13043)
T1 sequence (Q13043 1-487): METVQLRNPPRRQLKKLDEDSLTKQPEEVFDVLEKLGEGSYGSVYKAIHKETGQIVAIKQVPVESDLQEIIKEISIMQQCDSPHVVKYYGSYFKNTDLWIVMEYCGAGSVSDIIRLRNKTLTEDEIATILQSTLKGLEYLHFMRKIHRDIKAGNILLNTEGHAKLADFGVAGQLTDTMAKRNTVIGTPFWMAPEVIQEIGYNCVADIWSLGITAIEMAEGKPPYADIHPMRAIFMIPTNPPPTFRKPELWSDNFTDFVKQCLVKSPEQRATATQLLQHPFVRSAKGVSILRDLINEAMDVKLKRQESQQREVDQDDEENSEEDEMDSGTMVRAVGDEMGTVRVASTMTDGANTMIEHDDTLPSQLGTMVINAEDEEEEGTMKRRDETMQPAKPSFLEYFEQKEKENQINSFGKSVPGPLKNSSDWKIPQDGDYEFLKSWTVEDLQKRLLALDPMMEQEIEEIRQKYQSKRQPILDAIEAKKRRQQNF
Test: In vitro measurement of MST1 inhibition (Z′-Lyte kinase assay)
Type: biochemical
Protocol: Assays were performed in low-volume 384-well black proxiplates (Perkin Elmer, PE-Blk-Proxi-6008269). Eight compounds were first diluted into LDV (Echo) plates using a Multiprobe, at a starting concentration of 1 mM compound in 100% DMSO. Using the ECHO, 75 nl compound was pinged into 384-well proxiplates. The starting concentration of compound in each assay plate is 7.5 uM, followed by 3-fold dilutions, to give quadruplicate ten-point concentration curves. A 3× solution of MST1 enzyme in kinase buffer (Invitrogen, PR4940C) was added to wells containing compound or DMSO controls, followed by a 10 minute preincubation step. Reactions were initiated by adding 5 μL of a mixture of ATP and Z′-Lyte S/T Pep 7 (Invitrogen, PV3180) and proceeded at RT for 1 hour. […] At the end of the kinase reaction, 10 ul of developing solution (Invitrogen, catalog #PR4876B; development buffer A diluted […] in development buffer B) was added to each well and incubated at RT for 1 hr. All wells were read on a Tecan at 400 nm excitation and 460 nm/530 nm emission. Plus and minus enzyme controls were used to calculate percent inhibition and IC50 curves were generated using Excel.

[1] = 1 μM ATP, read-out: IC50 (μM) 1 μM ATP
[2] = 50 μM ATP, read-out: IC50 (μM) 50 μM ATP

SMILES | IC50 [1] [µM] | IC50 [2] [µM]
CC(C)(C#N)c1ccc(-c2cnc(N)c(-c3ccc4c(c3)CCNC4=O)n2)s1 [2-(5-(5-amino-6-(1-oxo-1,2,3,4-tetrahydroisoquinolin-6-yl)pyrazin-2-yl)thiophen-2-yl)-2-methylpropanenitrile] | < 0.05 | < 0.01
NCC1CCC(NC(=O)c2nc(-c3ccc(S(=O)(=O)NC4CC4)cc3)cnc2N)CC1 (stereo not shown) [3-amino-N-(4-(aminomethyl)cyclohexyl)-6-(4-(N-cyclopropylsulfamoyl)phenyl)pyrazine-2-carboxamide] | < 0.05 | < 0.01
CCCC(C)NC(=O)c1nc(-c2cc(OC)c(OC)c(OC)c2)cnc1N (stereo not shown) [3-amino-N-(pentan-2-yl)-6-(3,4,5-trimethoxyphenyl)pyrazine-2-carboxamide] |  | < 0.15
NC(=O)c1ccc(-c2cc(-c3cn[nH]c3)cnc2N)cc1 [4-(2-amino-5-(1H-pyrazol-4-yl)pyridin-3yl)benzamide] |  | < 0.15
NC(=O)c1ccc(-c2cc(-c3ccc(S(=O)(=O)NC4CC4)cc3Cl)cnc2N)cc1 [4-(2-amino-5-(2-chloro-4-(N-cyclopropylsulfamoyl)phenyl)pyridin-3-yl)benzamide] |  | < 0.15
NC(=O)c1ccc(-c2cc(-c3ccc(CC(=O)N4CCCC4)cc3)cnc2N)cc1 [4-(2-amino-5-(4-(2-oxo-2-(pyrrolidin-1-yl)ethyl)phenyl)pyridin-3-yl)benzamide] |  | < 0.15
CNS(=O)(=O)c1ccc(-c2cnc(N)c(-c3ccc(C(N)=O)cc3)c2)cc1 [4-(2-amino-5-(4-(N-methylsulfamoyl)phenyl)pyridin-3-yl)benzamide] |  | < 0.15
CCOc1cc(-c2cc(-c3ccc(F)cc3)cnc2N)ccc1C(N)=O [4-(2-amino-5-(4-fluorophenyl)pyridin-3-yl)-2-ethoxybenzamide] |  | < 0.15
NC(=O)c1ccc(-c2cc(-c3ccc(S(N)(=O)=O)cc3)cnc2N)cc1 [4-(2-amino-5-(4-sulfamoylphenyl)pyridin-3-yl)benzamide] |  | < 0.15
CC1(C)CNC(=O)c2ccc(-c3nc(-c4ccc(C5(C#N)CCOCC5)cc4)cnc3N)cc21 [4-(4-(5-amino-6-(4,4-dimethyl-1-oxo-1,2,3,4-tetrahydroisoquinolin-6-yl)pyrazin-2-yl)phenyl)tetrahydro-2H-pyran-4-carbonitrile] | < 0.01 | < 0.01
N#CC1(c2ccc(-c3cnc(N)c(-c4ccc5c(c4)C4(CC4)CNC5=O)c3)cc2)CCOCC1 [4-(4-(6-amino-5-(1′-oxo-2′,3′-dihydro-1′H-spiro[cyclopropane-1,4′-isoquinolin]-6′-yl)pyridin-3-yl)phenyl)tetrahydro-2H-pyran-4-carbonitrile] | < 0.01 | < 0.01
N#CC1(c2ccc(-c3cnc(N)c(-c4ccc5c(c4)C4(CC4)NC5=O)c3)cc2)CCOCC1 [4-(4-(6-amino-5-(3′-oxospiro[cyclopropane-1,1′-isoindolin]-6′-yl)pyridin-3-yl)phenyl)tetrahydro-2H-pyran-4-carbonitrile] | < 0.05 | < 0.01
CC1(C)CNC(=O)c2ccc(-c3cc(-c4ccc(C5(C#N)CCOCC5)cc4)cnc3N)cc21 [4-(4-(6-amino-5-(4,4-dimethyl-1-oxo-1,2,3,4-tetrahydroisoquinolin-6-yl)pyridin-3-yl)phenyl)tetrahydro-2H-pyran-4-carbonitrile] | < 0.01 | < 0.01
NC(=O)c1ccc(-c2cc(-c3ccc(-n4ccnc4)cc3)cnc2N)cc1 [4-(5-(4-(1H-imidazol-1-yl)phenyl)-2-aminopyridin-3-yl)benzamide] |  | < 0.15
CC(=O)NS(=O)(=O)c1ccc(-c2cnc(N)c(-c3ccc(C(N)=O)cc3)c2)cc1 [4-(5-(4-(N-acetylsulfamoyl)phenyl)-2-aminopyridin-3-yl)benzamide] |  | < 0.15

Results, then the compound that gave them:

IC50 [1] [µM] | IC50 [2] [µM] | SMILES
< 0.05 | < 0.01 | N#CCc1ccc(-c2cnc(N)c(-c3ccc4c(c3)CCNC4=O)n2)s1 [2-(5-(5-amino-6-(1-oxo-1,2,3,4-tetrahydroisoquinolin-6-yl)pyrazin-2-yl)thiophen-2-yl)acetonitrile]
< 0.05 | < 0.05 | CC(C)(C#N)c1ccc(-c2cnc(N)c(-c3ccc4c(c3)CCNC4=O)c2)cn1 [2-(6′-amino-5′-(1-oxo-1,2,3,4-tetrahydroisoquinolin-6-yl)-[3,3′-bipyridin]-6-yl)-2-methylpropanenitrile]
< 0.05 | < 0.01 | CCN(CC)S(=O)(=O)c1ccc(-c2cnc(N)c(-c3ccc(C(N)=O)cn3)c2)cc1 [2′-amino-5′-(4-(N,N-diethylsulfamoyl)phenyl)-[2,3′-bipyridine]-5-carboxamide]
< 0.05 | < 0.01 | CCNS(=O)(=O)c1ccc(-c2cnc(N)c(-c3ccc(C(N)=O)cn3)c2)cc1 [2′-amino-5′-(4-(N-ethylsulfamoyl)phenyl)-[2,3′-bipyridine]-5-carboxamide]
 | < 0.15 | COc1ccc(-c2cnc(N)c(C(=O)NC3CCCCC3)n2)cc1OC [3-amino-N-cyclohexyl-6-(3,4-dimethoxyphenyl)pyrazine-2-carboxamide]
< 0.15 | < 0.05 | CCNS(=O)(=O)c1ccc(-c2cnc(N)c(C(=O)NC3CCCCC3)n2)cc1 [3-amino-N-cyclohexyl-6-(4-(N-ethylsulfamoyl)phenyl)pyrazine-2-carboxamide]
 | < 0.15 | COCc1ccc(-c2cnc(N)c(C(=O)NC3CCCCC3)n2)cc1 [3-amino-N-cyclohexyl-6-(4-(methoxymethyl)phenyl)pyrazine-2-carboxamide]
< 0.15 | < 0.15 | CN(C1CC1)S(=O)(=O)c1ccc(-c2cnc(N)c(C3=CCN(C(=O)CC#N)CC3)c2)cc1 [4-(2-amino-1′-(2-cyanoacetyl)-1′,2′,3′,6′-tetrahydro-[3,4′-bipyridin]-5-yl)-N-cyclopropyl-N-methylbenzenesulfonamide]
 | < 0.15 | CN(C)C(=O)COc1ccc(-c2cnc(N)c(-c3ccc(C(N)=O)cc3)c2)cc1 [4-(2-amino-5-(4-(2-(dimethylamino)-2-oxoethoxy)phenyl)pyridin-3-yl)benzamide]
 | < 0.05 | CCN(CC)S(=O)(=O)c1ccc(-c2cnc(N)c(-c3ccc(C(N)=O)c(F)c3)c2)cc1 [4-(2-amino-5-(4-(N,N-diethylsulfamoyl)phenyl)pyridin-3-yl)-2-fluorobenzamide]
< 0.05 | < 0.05 | NC(=O)c1ccc(-c2cc(-c3ccc(S(=O)(=O)NC4CC4)cc3)cnc2N)cc1 [4-(2-amino-5-(4-(N-cyclopropylsulfamoyl)phenyl)pyridin-3-yl)benzamide]
 | < 0.15 | Nc1ncc(-c2ccc(C(=O)NCc3ccccc3)cc2)cc1-c1ccc(C(=O)NO)cc1 [4-(2-amino-5-(4-(benzylcarbamoyl)phenyl)pyridin-3-yl)-N-hydroxybenzamide]
 | < 0.15 | NC(=O)c1ccc(-c2cc(-c3ccc(C(=O)c4ccccc4)cc3)cnc2N)cc1 [4-(2-amino-5-(4-benzoylphenyl)pyridin-3-yl)benzamide]
 | < 0.15 | CCCOc1ccc(-c2cnc(N)c(-c3ccc(C(N)=O)cc3)c2)cc1 [4-(2-amino-5-(4-propoxyphenyl)pyridin-3-yl)benzamide]
< 0.05 | < 0.01 | CC(C)Oc1cc(-c2nc(-c3ccc(S(=O)(=O)N(C)C4CC4)cc3)cnc2N)ccc1C(N)=O [4-(3-amino-6-(4-(N-cyclopropyl-N-methylsulfamoyl)phenyl)pyrazin-2-yl)-2-isopropoxybenzamide]
< 0.05 | < 0.01 | N#CC1(c2ccc(-c3cnc(N)c(-c4ccc5c(c4)CCNC5=O)n3)cc2)CCOCC1 [4-(4-(5-amino-6-(1-oxo-1,2,3,4-tetrahydroisoquinolin-6-yl)pyrazin-2-yl)phenyl)tetrahydro-2H-pyran-4-carbonitrile]
< 0.05 | < 0.01 | N#CC1(c2ccc(-c3cnc(N)c(-c4ccc5c(c4)CCCNC5=O)n3)cc2)CCOCC1 [4-(4-(5-amino-6-(1-oxo-2,3,4,5-tetrahydro-1H-benzo[c]azepin-7-yl)pyrazin-2-yl)phenyl)tetrahydro-2H-pyran-4-carbonitrile]
< 0.05 | < 0.01 | N#CC1(c2ccc(-c3cnc(N)c(-c4ccc5c(c4)C4(CC4)NC5=O)n3)cc2)CCOCC1 [4-(4-(5-amino-6-(3′-oxospiro[cyclopropane-1,1′-isoindolin]-6′-yl)pyrazin-2-yl)phenyl)tetrahydro-2H-pyran-4-carbonitrile]
< 0.05 | < 0.01 | N#CC1(c2ccc(-c3cnc(N)c(-c4ccc5c(c4)NCCNC5=O)n3)cc2)CCOCC1 [4-(4-(5-amino-6-(5-oxo-2,3,4,5-tetrahydro-1H-benzo[e][1,4]diazepin-8-yl)pyrazin-2-yl)phenyl)tetrahydro-2H-pyran-4-carbonitrile]
